From ChEMBL document CHEMBL1152249, “2,6-Diaryl-4-acylaminopyrimidines as potent and selective adenosine A(2A) antagonists with improved solubility and metabolic stability” (Bioorg Med Chem Lett, 2008)
pIC50, pKi: −log10 of the molar value. Active and inactive are the calls of the source. The rule behind the calls is not given here.

Key:
Adenosine receptor A2a [1] = biological target: Adenosine receptor A2a (Homo sapiens, UniProt P29274); assay: Displacement of [3H]ZM-241385 from human adenosine A2A receptor expressed in HEK293 cells; format: cell-based
Sequence of Adenosine receptor A2a (Homo sapiens, UniProt P29274) (P29274 whole entry): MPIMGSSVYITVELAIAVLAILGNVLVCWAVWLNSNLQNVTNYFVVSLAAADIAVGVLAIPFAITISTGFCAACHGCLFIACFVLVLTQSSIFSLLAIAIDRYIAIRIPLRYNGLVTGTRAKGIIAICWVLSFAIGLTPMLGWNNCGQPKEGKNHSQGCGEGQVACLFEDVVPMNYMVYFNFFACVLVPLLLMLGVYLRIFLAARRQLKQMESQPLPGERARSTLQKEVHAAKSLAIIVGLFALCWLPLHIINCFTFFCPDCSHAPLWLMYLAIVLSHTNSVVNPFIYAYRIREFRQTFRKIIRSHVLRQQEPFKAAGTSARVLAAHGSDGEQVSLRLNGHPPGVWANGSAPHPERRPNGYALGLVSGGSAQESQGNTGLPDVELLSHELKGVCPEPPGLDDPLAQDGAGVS

Homo sapiens = organism: Homo sapiens; assay: Selectivity for human adenosine A2A receptor over human adenosine A1 receptor
Rattus norvegicus [2] = assay: Inhibition of haloperidol-induced catalepsy in po dosed rat; format: functional; settings: read-out: MED
Adenosine receptor A2a [3] = biological target: Adenosine receptor A2a (Rattus norvegicus, UniProt P30543); assay: Activity at adenosine A2A receptor in rat PC12 cells assessed as intracellular cAMP accumulation; format: functional, cell-based, PC-12
Sequence of Adenosine receptor A2a (Rattus norvegicus, UniProt P30543) (P30543 whole entry): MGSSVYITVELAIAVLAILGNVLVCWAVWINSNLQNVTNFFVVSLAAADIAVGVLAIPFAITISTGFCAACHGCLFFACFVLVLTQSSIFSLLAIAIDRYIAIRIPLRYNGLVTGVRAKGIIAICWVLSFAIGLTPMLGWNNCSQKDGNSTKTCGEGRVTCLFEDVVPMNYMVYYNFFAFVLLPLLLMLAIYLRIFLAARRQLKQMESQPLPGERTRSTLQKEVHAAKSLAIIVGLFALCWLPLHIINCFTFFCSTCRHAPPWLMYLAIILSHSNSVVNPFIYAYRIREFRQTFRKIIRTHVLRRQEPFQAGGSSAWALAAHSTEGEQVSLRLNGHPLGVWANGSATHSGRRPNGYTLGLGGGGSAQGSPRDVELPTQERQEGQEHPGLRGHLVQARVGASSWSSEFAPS

[4] = Aqueous solubility at pH 8.0 by HPLC; format: physicochemical
Cytochrome P450 3A4 = Cytochrome P450 3A4 (Homo sapiens, UniProt P08684); assay: Inhibition of CYP3A4; format: ADME
Sequence of Cytochrome P450 3A4 (P08684 whole entry): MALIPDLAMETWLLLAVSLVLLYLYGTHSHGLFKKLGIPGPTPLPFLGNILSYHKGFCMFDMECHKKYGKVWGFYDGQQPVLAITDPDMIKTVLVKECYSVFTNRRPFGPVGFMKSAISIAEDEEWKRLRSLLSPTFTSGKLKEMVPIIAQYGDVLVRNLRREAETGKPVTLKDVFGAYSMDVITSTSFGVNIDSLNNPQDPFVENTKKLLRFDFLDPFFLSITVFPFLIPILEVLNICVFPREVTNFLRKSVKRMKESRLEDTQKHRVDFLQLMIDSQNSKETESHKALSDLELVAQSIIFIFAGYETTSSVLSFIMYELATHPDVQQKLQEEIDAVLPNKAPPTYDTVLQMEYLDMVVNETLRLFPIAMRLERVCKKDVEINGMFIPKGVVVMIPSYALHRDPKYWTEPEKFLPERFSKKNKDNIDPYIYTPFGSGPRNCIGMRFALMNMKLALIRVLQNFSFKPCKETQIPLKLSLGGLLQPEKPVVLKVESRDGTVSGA

[5] = Metabolic stability in human liver microsomes assessed as intrinsic clearance; format: ADME, Microsome
Cytochrome P450 2D6 = Cytochrome P450 2D6 (Homo sapiens, UniProt P10635); assay: Inhibition of CYP2D6; format: ADME
Sequence of Cytochrome P450 2D6 (P10635 whole entry): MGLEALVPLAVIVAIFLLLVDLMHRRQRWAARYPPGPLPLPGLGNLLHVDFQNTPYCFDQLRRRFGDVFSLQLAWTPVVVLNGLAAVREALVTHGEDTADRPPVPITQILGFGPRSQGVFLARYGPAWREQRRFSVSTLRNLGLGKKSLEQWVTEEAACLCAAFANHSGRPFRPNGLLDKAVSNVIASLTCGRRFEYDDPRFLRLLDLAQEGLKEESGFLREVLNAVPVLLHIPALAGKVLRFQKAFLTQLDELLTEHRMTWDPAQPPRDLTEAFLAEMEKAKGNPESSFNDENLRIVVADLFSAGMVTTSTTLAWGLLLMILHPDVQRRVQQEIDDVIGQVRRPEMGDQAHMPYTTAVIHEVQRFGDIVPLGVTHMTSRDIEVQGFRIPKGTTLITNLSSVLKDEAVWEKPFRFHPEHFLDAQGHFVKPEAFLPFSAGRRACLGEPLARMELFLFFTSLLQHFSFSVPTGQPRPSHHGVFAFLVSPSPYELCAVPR

Rattus norvegicus [6] = assay: Inhibition of haloperidol-induced catalepsy in rat at 30 mg/kg, po; format: functional, organism-based; set-up: dose 30 mg/kg

SMILES	pKi (Adenosine receptor A2a [1])	Ratio Ki (Homo sapiens)	further results
CC(=O)Nc1cc(-c2cccc(OC3CCN(C)CC3)c2)nc(-n2nc(C)cc2C)n1	8.22	146	–
CC(=O)Nc1cc(-c2cc(F)cc(F)c2)nc(-n2nc(C)cc2C)n1	8.40	64	–
COc1cc(OC)cc(-c2cc(NC(C)=O)nc(-n3nc(C)cc3C)n2)c1	9.70	111	minimal effective dose (Rattus norvegicus [2]): 1 mg/kg; pIC50 (Adenosine receptor A2a [3]): 7.54; solubility [4]: < 100 µg/mL; Activity (Cytochrome P450 3A4; TDE = time-dependent effect): tde
CC(=O)Nc1cc(-c2cc(F)cc(O[C@@H]3CCN(C)C3)c2)nc(-n2nc(C)cc2C)n1	8.70	125	CLint scaled [5]: 3 mL/min/kg
CC(=O)Nc1cc(-c2cc(C)ccc2C)nc(-n2nc(C)cc2C)n1	7.72	46	–
CC(=O)Nc1cc(-c2cccc(CO[C@H]3CCN(C)C3)c2)nc(-n2nc(C)cc2C)n1	7.14	102	–
COc1c(F)cccc1-c1cc(NC(C)=O)nc(-n2nc(C)cc2C)n1	8.52	164	solubility [4]: < 100 µg/mL
CC(=O)Nc1cc(-c2cc(O)cc(F)c2)nc(-n2nc(C)cc2C)n1	8.70	54	–
CC(=O)Nc1cc(-c2cc(C)cc(C)c2)nc(-n2nc(C)cc2C)n1	8.10	43	–
CC(=O)Nc1cc(-c2cccc(CO[C@@H]3CCN(C)C3)c2)nc(-n2nc(C)cc2C)n1	7.17	99	–
CN1CCN(CC(=O)Nc2cc(-n3cccn3)nc(-c3ccco3)n2)CC1	8.52	–	–
CC(=O)Nc1cc(-c2cc(F)cc(OC3CCN(C)C3)c2)nc(-n2nc(C)cc2C)n1 (centres undefined)	9.00	135	CLint scaled [5]: 3 mL/min/kg
CC(=O)Nc1cc(-c2cccc(OC3CCN(C(C)C)C3)c2)nc(-n2nc(C)cc2C)n1 (centres undefined)	8.52	167	–
CC(=O)Nc1cc(-c2cc(F)cc(O[C@H]3CCN(C)C3)c2)nc(-n2nc(C)cc2C)n1	9.00	218	pIC50 (Adenosine receptor A2a [3]): 7.82; solubility [4]: > 4000 µg/mL; Activity (Cytochrome P450 3A4): Not Active; CLint scaled [5]: 3 mL/min/kg; Activity (Cytochrome P450 2D6): Not Active; Activity (Rattus norvegicus [6]): Active
CC(=O)Nc1cc(-c2cccc(OC3CCCN(C)C3)c2)nc(-n2nc(C)cc2C)n1 (centres undefined)	9.00	203	–

More lines, main results first:

pKi (Adenosine receptor A2a [1])	Ratio Ki (Homo sapiens)	SMILES	further results
7.77	44	COc1ccc(-c2cc(NC(C)=O)nc(-n3nc(C)cc3C)n2)cc1	–
8.52	168	CCN1CCC(Oc2cccc(-c3cc(NC(C)=O)nc(-n4nc(C)cc4C)n3)c2)C1 (centres undefined)	–
8.70	10	CC(=O)Nc1cc(-c2cccc(C#N)c2)nc(-n2nc(C)cc2C)n1	–
9.00	72	COc1cccc(-c2cc(NC(C)=O)nc(-n3nc(C)cc3C)n2)c1	–
8.70	320	CC(=O)Nc1cc(-c2cccc(O[C@H]3CCN(C)C3)c2)nc(-n2nc(C)cc2C)n1	–
8.40	145	CC(=O)Nc1cc(-c2cccc(O[C@@H]3CCN(C)C3)c2)nc(-n2nc(C)cc2C)n1	–
7.06	7	CC(=O)Nc1cc(-c2ccccc2)nc(-n2nc(C)cc2C)n1	–
8.70	40	CC(=O)Nc1cc(-c2cccc(C(F)(F)F)c2)nc(-n2nc(C)cc2C)n1	–
8.70	74	CC(=O)Nc1cc(-c2cccc(O)c2)nc(-n2nc(C)cc2C)n1	–
8.70	71	COc1ccccc1-c1cc(NC(C)=O)nc(-n2nc(C)cc2C)n1	–
8.70	191	CC(=O)Nc1cc(-c2cccc(OC3CCN(C)C3)c2)nc(-n2nc(C)cc2C)n1 (centres undefined)	pIC50 (Adenosine receptor A2a [3]): 7.38; solubility [4]: > 4000 µg/mL; CLint scaled [5]: 54 mL/min/kg
8.70	50	CC(=O)Nc1cc(-c2cccc(CC#N)c2)nc(-n2nc(C)cc2C)n1	–
8.15	59	CC(=O)Nc1cc(-c2cccc(C)c2)nc(-n2nc(C)cc2C)n1	–
8.30	134	CC(=O)Nc1cc(-c2cccc(OCCN(C)C)c2)nc(-n2nc(C)cc2C)n1	solubility [4]: > 4000 µg/mL
